Earlier results on one compound are cited in patent publication US20020009704A1, “Oocyte vitrification technique” (priority 2000, published 2002).

The data set concerns bovine oocytes.

Structures are written as SMILES.

Consider `OCCO` [ethylene glycol], for which the “toxicity for bovine oocytes” value was “relatively low toxicity”.
